Test: solubility of compound I in aqueous solutions
Format: physicochemical

CN1CCc2nc(C(=O)N[C@@H]3C[C@@H](C(=O)N(C)C)CC[C@@H]3NC(=O)C(=O)Nc3ccc(Cl)cn3)sc2C1 [compound I, N^1-(5-chloropyridin-2-yl)-N^2-((1S,2R,4S)-4-[(dimethylamino)carbonyl]-2-{[(5-methyl-4,5,6,7-tetrahydrothiazolo[5,4-c]pyridin-2-yl)carbonyl]amino}cyclohexyl)ethanediamide]
solubility in a neutral aqueous solution (neutral aqueous solution (e.g., a neutral buffer)): reduced solubility | solubility in a strongly acidic aqueous solution (strongly acidic aqueous solution): favorable solubility
